# According to PMC4594923, “Food Polyphenols Fail to Cause a Biologically Relevant Reduction of COX-2 Activity” (PLoS ONE, 2015):
# Entries after “also recorded” stand apart in the source; their conditions may differ. Marks after values point to notes of the source that are not given here.
# Columns and labels:
# [1] = system: arachidonic acid (AA) cascade; assay: kidney tissue oxylipin/PG levels in LPS induced sepsis in mice;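 further: male C57BL/6N mice challenged with LPS, kidney taken 24 h later, oxylipins quantified by LC-MS after solid-phase extraction of tissue homogenate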
# ovine recombinant COX–1 [2] = molecular target: T1, ovine recombinant COX–1 (Ovis aries, UniProt P05979); assay: cell-free COX–1 enzyme assay (PGE2 formation, LC-MS); format: biochemical; design: purchased Cayman Chemicals/ Biomol, Hamburg, Germany
# T1 sequence (P05979 25-600): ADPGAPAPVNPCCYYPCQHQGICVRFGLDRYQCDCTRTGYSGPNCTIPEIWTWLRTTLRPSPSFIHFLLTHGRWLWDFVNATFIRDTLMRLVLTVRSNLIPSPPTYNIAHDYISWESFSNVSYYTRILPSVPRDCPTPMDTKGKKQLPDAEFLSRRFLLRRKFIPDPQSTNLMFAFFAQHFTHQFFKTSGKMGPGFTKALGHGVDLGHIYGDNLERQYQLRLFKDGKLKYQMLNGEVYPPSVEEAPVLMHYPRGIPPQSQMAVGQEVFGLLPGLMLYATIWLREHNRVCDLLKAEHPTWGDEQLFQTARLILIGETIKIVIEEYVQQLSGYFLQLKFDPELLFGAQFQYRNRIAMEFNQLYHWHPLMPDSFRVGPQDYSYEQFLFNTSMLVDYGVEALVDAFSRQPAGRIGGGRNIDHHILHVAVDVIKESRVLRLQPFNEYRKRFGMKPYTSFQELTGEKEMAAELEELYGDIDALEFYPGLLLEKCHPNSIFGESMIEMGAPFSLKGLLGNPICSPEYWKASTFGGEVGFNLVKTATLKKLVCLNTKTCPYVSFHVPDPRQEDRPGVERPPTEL
# Method: The in vitro assays were performed as described [6, 16, 18] and COX metabolites were quantified by LC-MS [18].
# Primary human monocytes were freshly isolated from human blood. Blood was collected from healthy human subjects after written informed consent was obtained. […] After 24 h, the supernatant was sampled for LC-MS and cells were collected for the COX–2 expression analysis by Western Blotting.
# (§1) GraphPad Prism 5.0 (GraphPad Software, San Diego, USA) was used for data analysis, the fitting of dose response curves and calculation of the IC50 values. Statistical differences were determined by Dunnetts test (LPS vs. other groups).
# [3] = system: arachidonic acid (AA) cascade; assay: plasma oxylipin/PG levels in LPS induced sepsis in mice;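 on all read-outs here: male C57BL/6N mice given LPS, plasma oxylipins quantified by LC-MS after solid-phase extraction, pretreatment or vehicle given intraperitoneally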; format: in vivo, C57BL/6N mice; conditions: mice, 24 h after LPS, vs. LPS group; for plasma PGE2 level: compound i. p. 100 mg/kg bw 2 h before LPS (10 mg/kg bw i. p.)
# From the text: Twelve week old male C57BL/6N mice (Charles River, Sulzfeld, Germany) were used for all experiments. C57BL/6 male mice (H2^b, 11–13 weeks of age) were obtained from Charles River (Sulzfeld, Germany). Animals were cared for in accordance with the institution’s guidelines for experimental animals and with the guidelines of the American Physiological Society. […] Mice were monitored closely and if they appeared compromised (i.e. inactivity, no intake of food or water) after compound or LPS injection the experiment was terminated.
# Oxylipin levels were analyzed in plasma and tissues by LC-MS following SPE extraction of 200 μl plasma or tissue homogenate (50 mg) on Chromabond C18 ec cartridges (Machery-Nagel, Düren, Germany) [19].
# as §1
# COX–2 = conditions: different murine colitis models; cited from earlier work
# COX–2 protein [4] = conditions: Western Blot, same assay conditions; cited from earlier work
# COX–2 protein [5] = conditions: Western Blot, same assay conditions; cited from earlier work; remark: listed apart in the source
# ovine recombinant COX–1 [6] = molecular target: T1, ovine recombinant COX–1; conditions: based on PGE2 formation, n=3, same assay conditions; cited from earlier work
# [7] = kidney tissue 24 h after LPS treatment, LPS +, mean
# [8] = kidney tissue 24 h after LPS treatment, LPS +, mean, < = below LOQ
# [9] = mice, compound i. p. 100 mg/kg bw 2 h before LPS, 24 h after LPS, vs. LPS group
compound,measurement,setting,value
"Oc1ccc(/C=C/c2cc(O)cc(O)c2)cc1 [Resveratrol, resveratrol]","1a,1b-dihomo-PGF2α",[1]; [7],3.9^‡ nM
same,"4,5-DiHDPE",[1]; [7],15 nM
same,4-HDHA,[1]; [7],16 nM
same,5(6)-EpETrE,[1]; [7],66 nM
same,"5,6-DiHETrE",[1]; [7],1.5 nM
same,5-HEPE,[1]; [7],1.1 nM
same,5-HETE,[1]; [7],12 nM
same,5-oxo-ETE,[1]; [7],17 nM
same,6-keto-PGF1α,[1]; [7],80^* nM
same,"7,8-DiHDPE",[1]; [7],1.7 nM
same,7-HDHA,[1]; [7],2.7 nM
same,8(9)-EpETrE,[1]; [7],15 nM
same,"8,9-DiHETrE",[1]; [7],1.6 nM
same,8-HDHA,[1]; [7],16 nM
same,8-HETE,[1]; [7],4.2 nM
same,8-iPF2a,[1]; [7],3.2^‡ nM
same,9(10)-EpODE,[1]; [7],8.2 nM
same,9(10)-EpOME,[1]; [7],81 nM
same,9(10)-Epoxystearic acid,[1]; [7],40 nM
same,"9,10,13-TriHOME",[1]; [7],7.4 nM
same,"9,10-DiHODE",[1]; [7],1.3 nM
same,"9,10-DiHOME",[1]; [7],22 nM
same,"9,10-Dihydroxystearic acid",[1]; [7],60 nM
same,"9,12,13-TriHOME",[1]; [7],45 nM
same,9-HETE,[1]; [7],3.1 nM
same,9-HODE,[1]; [7],350^* nM
same,9-HOTrE,[1]; [7],3.9 nM
same,9-oxo-ODE,[1]; [7],43 nM
same,10(11)-EpDPE,[1]; [7],30 nM
same,"10,11-DiHDPE",[1]; [7],2.3 nM
same,10-HDHA,[1]; [7],3.5 nM
same,11(12)-EpETE,[1]; [7],1.5 nM
same,11(12)-EpETrE,[1]; [7],35 nM
same,"11,12-DiHETrE",[1]; [7],2.6 nM
same,11-HDHA,[1]; [7],4.9 nM
same,11-HETE,[1]; [7],31^‡ nM
same,12(13)-EpODE,[1]; [7],3.4 nM
same,12(13)-EpOME,[1]; [7],59 nM
same,"12,13-DiHOME",[1]; [7],48 nM
same,12-HEPE,[1]; [7],2.1 nM
same,12-HETE,[1]; [7],24 nM
same,13(14)-EpDPE,[1]; [7],24 nM
same,"13,14-DiHDPE",[1]; [7],3.2 nM
same,"13,14-dihydro-15-keto-PGF2α",[1]; [7],4.3^‡ nM
same,13-HDHA,[1]; [7],11^‡ nM
same,13-HODE,[1]; [7],270 nM
same,13-HOTrE,[1]; [7],3.6 nM
same,13-oxo-ODE,[1]; [7],6.1 nM
same,14(15)-EpETE,[1]; [7],1.7 nM
same,14(15)-EpETrE,[1]; [7],28 nM
same,"14,15-DiHETE",[1]; [7],0.62 nM
same,"14,15-DiHETrE",[1]; [7],7.1 nM
same,14-HDHA,[1]; [7],12 nM
same,15(16)-EpODE,[1]; [7],24 nM
same,15(S)-HETrE,[1]; [7],7.4^‡ nM
same,"15,16-DiHODE",[1]; [7],20 nM
same,15-HETE,[1]; [7],38^‡ nM
same,15-oxo-ETE,[1]; [7],7.5 nM
same,16(17)-EpDPE,[1]; [7],23 nM
same,"16,17-DiHDPE",[1]; [7],8.5 nM
same,16-HDHA,[1]; [7],6.9 nM
same,17(18)-EpETE,[1]; [7],2.5 nM
same,"17,18-DiHETE",[1]; [7],2.6^* nM
same,17-HDHA,[1]; [7],17 nM
same,18-HEPE,[1]; [7],1.3 nM
same,19(20)-EpDPE,[1]; [7],43 nM
same,"19,20-DiHDPE",[1]; [7],68 nM
same,20-HDHA,[1]; [7],19 nM
same,20-HEPE,[1]; [7],5.3 nM
same,EKODE,[1]; [7],45 nM
same,PGD2,[1]; [7],20^† nM
same,PGE1,[1]; [7],11^† nM
same,PGE2,[1]; [7],210^‡ nM
same,PGF1α,[1]; [7],6.2^† nM
same,PGF2α,[1]; [7],70^‡ nM
same,TXB2,[1]; [7],3.8^† nM
same,"5,6-DiHETE",[1]; [8],< 0.25 nM
same,5-iPF2α,[1]; [8],< 1.0 nM
same,8(9)-EpETE,[1]; [8],< 1.0 nM
same,"12,13-DiHODE",[1]; [8],< 2.0 nM
same,"13,14-dihydro-15-keto-PGE1",[1]; [8],0.6 nM
same,20-HETE,[1]; [8],< 2.7 nM
same,PGD1,[1]; [8],0.72 nM
same,PGF2α,"[1]; kidney tissue 24 h after LPS treatment, LPS +, mean, second listing of PGF2α (r9)",70 nM
same,kidney 6-keto-PGF1α level,[1]; [9],increased
same,kidney 8-iPGF2α level,[1]; [9],increased
same,"kidney 13,14-dihydro-15-keto-PGE1 level",[1]; [9],increased
same,kidney PGE2 level,[1]; [9],increased
same,kidney PGF2α level,[1]; [9],increased
same,IC50,ovine recombinant COX–1 [2],0.49 µM
same,"effect on COX–1 dependent PGE2 formation, cell-free enzyme assay",ovine recombinant COX–1 [2],dose-dependently decreased; also recorded: inhibited
same,plasma PGE2 level,[3],increased
same,plasma PGE2 level,[3]; listed as resveratrol,elevated
same,sum of linoleic acid (LA) derived epoxy-metabolites in plasma,[3]; compound i. p. 100 mg/kg bw 2 h before LPS,decrease
same,COX–2 expression and PGE2 production,COX–2,reduced COX–2 expression and PGE2 production
C[C@@H]1C[C@H]2[C@@H]3CCC4=CC(=O)C=C[C@]4(C)[C@@]3(F)[C@@H](O)C[C@]2(C)[C@@]1(O)C(=O)CO [dexamethasone],"COX-2 Expression, primary monocytes",COX–2 protein [4],1 µM - 3 nM: COX-2 ↓
same,"COX-2 Expression, HCA-7",COX–2 protein [5],no effect (up to 100 µM)
same,"IC50 (95% CI), cell-free – COX-1",ovine recombinant COX–1 [6],no effect (up to 100 µM)
